Holding throughout (assay type): biochemical
In experiment [1] the target is T1, PRMT5 (Homo sapiens, UniProt O14744).
T1 construct: purchased Viva (custom protein)
The experiment in a line: PRMT5 IC50 assay in the presence of SAM as cofactor. The source says: (§1) Table 1a indicates IC50 values (μM) against PRMT5 for exemplary compounds in the presence of SAM as cofactor, with no cofactor and with MTA as cofactor, respectively (columns 3-5). […] The Ki values can be calculated from the IC50 values as described in the Examples section. As detailed in the Examples section, for the assay performed in the presence of SAM, IC50=Ki×1.5 (Ki=IC50/1.5). For the assay performed in the presence of MTA, IC50=Ki×13.5 (Ki=IC50/13.5). Column 6 indicates the ratio between the Ki of compounds in the presence of SAM and the Ki of compounds in the presence of MTA

For experiment [2], the target named is T1, PRMT5. Nature of the experiment: PRMT5 IC50 assay with no cofactor.
Excerpt: as §1

The target of experiment [3] is T1, PRMT5. Nature of the experiment: PRMT5 IC50 assay in the presence of MTA as cofactor. Particulars: for pIC50: PRMT5, MTA as cofactor.
Excerpt: as §1

Setting [4] is: ratio between the Ki in the presence of SAM and the Ki in the presence of MTA.
The mark [5] stands for this setting: ratio between Ki in the presence of SAM and Ki in the presence of MTA.

pIC50: −log10 of the molar value.

T1 sequence (O14744 whole entry): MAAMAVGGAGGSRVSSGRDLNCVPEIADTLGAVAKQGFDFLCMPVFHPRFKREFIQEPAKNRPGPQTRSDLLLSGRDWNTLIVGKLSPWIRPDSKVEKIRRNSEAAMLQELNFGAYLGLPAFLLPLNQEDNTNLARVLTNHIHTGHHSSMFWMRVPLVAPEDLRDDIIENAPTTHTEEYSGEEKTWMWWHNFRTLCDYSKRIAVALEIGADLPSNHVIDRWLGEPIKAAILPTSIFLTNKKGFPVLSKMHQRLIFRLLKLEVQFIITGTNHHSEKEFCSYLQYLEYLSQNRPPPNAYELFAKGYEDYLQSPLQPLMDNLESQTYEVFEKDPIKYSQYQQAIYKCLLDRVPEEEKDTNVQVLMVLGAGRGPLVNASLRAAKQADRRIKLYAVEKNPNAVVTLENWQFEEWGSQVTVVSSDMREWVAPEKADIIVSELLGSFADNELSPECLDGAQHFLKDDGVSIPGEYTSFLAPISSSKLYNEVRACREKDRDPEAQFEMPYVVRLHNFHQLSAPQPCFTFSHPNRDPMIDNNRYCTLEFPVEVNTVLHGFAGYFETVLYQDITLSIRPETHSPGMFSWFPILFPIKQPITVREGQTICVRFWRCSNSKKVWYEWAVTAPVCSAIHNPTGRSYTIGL
T1 sequence (Q9BQA1 whole entry partner): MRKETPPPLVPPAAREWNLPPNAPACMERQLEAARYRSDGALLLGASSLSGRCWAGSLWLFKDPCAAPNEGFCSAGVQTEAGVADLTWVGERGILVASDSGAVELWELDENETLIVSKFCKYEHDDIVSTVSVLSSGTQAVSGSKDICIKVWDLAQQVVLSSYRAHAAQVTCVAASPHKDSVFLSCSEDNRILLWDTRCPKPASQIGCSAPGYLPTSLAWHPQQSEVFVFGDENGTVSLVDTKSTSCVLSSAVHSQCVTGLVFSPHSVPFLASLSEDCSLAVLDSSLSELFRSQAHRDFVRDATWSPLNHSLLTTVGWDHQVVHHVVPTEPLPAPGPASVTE

For `CNC(=O)CN1CCC(Nc2cc(C(=O)NC[C@H](O)CN3CCc4c(ccc(OCc5cnco5)c4C)C3)ncn2)CC1` [Compound 524, N-[(2S)-2-hydroxy-3-{5-methyl-6-[(1,3-oxazol-5-yl)methoxy]-1,2,3,4-tetrahydroisoquinolin-2-yl}propyl]-6-{[1-[(methylcarbamoyl)methyl]piperidin-4-yl}amino)pyrimidine-4-carboxamide], the pIC50 in experiment [1] is 5.30 to 6.30; in experiment [2] it was no more than 5.30; in experiment [3] it was 5.30 to 6.30. Also, the “SAM/MTA Ratio” value in experiment [3] (setting [4]) was “A (a Ki ratio greater than or equal to 10 fold between the Ki in the presence of SAM and the Ki in the presence of MTA)”.

As to `Cc1ncoc1COc1ccc2c(c1C)CCN(C[C@@H](O)CNC(=O)c1cc(NC3CCC3)nc(N3CCCCC3)c1)C2` [Compound 557, 2-(cyclobutylamino)-N-[(2S)-2-hydroxy-3-{5-methyl-6-[(4-methyl-1,3-oxazol-5-yl)methoxy]-1,2,3,4-tetrahydroisoquinolin-2-yl}propyl]-6-(piperidin-1-yl)pyridine-4-carboxamide], the pIC50 in experiment [1] was 5.30 to 6.30; in experiment [2], no more than 5.30; in experiment [3], 6.30 to 7.30. The “SAM/MTA Ratio” value in experiment [3] (setting [4]) was “A (a Ki ratio greater than or equal to 10 fold between the Ki in the presence of SAM and the Ki in the presence of MTA)”.

Regarding `Cc1c(OCc2cnco2)ccc2c1CCN(C[C@@H](O)CNC(=O)c1ccnc(NC34CC(C3)C4)c1)C2` [Compound 514, (S)-2-(bicyclo[1.1.1]pentan-1-ylamino)-N-(2-hydroxy-3-(5-methyl-6-(oxazol-5-ylmethoxy)-3N-dihydroisoquinolin-2(1H)-yl)propyl)isonicotinamide], the figures for the pIC50 in experiment [1], in experiment [2] and in experiment [3] were 5.30 to 6.30, no more than 5.30 and 5.30 to 6.30, respectively. Besides, the “SAM/MTA Ratio” value in experiment [3] (setting [4]) was “A (a Ki ratio greater than or equal to 10 fold between the Ki in the presence of SAM and the Ki in the presence of MTA)”.

For the compound `CO[C@H]1C[C@H](Nc2cc(C(=O)NC[C@H](O)CN3CCc4c(ccc(OCc5cnco5)c4C)C3)ccn2)C1` [Compound 591, N-[(2S)-2-hydroxy-3-{5-methyl-6-[(1,3-oxazol-5-yl)methoxy]-1,2,3,4-tetrahydroisoquinolin-2-yl}propyl]-2-{[(1r,3r)-3-methoxycyclobutyl]amino}pyridine-4-carboxamide], the negative logarithm of the IC50 (pIC50) in experiment [1] is 6.30 to 7.30; in experiment [2], no more than 5.30; in experiment [3], 6.30 to 7.30. Moreover, the “SAM/MTA Ratio” value in experiment [3] (setting [4]) was “A (a Ki ratio greater than or equal to 10 fold between the Ki in the presence of SAM and the Ki in the presence of MTA)”.

Regarding `O[C@@H](CNc1nccc(-c2sccc2Br)n1)CN1CCc2cc(OCc3cnco3)ccc2C1` [Compound 331, (S)-1-((4-(3-bromothiophen-2-yl)pyrimidin-2-yl)amino)-3-(6-(oxazol-5-ylmethoxy)-3,4-dihydroisoquinolin-2(1H)-yl)propan-2-ol], the pIC50 in experiment [1], in experiment [2] (read-out: No Co-factor IC50) and in experiment [3] was 5.30 to 6.30 throughout. Moreover, the “SAM/MTA Ratio” value in experiment [3] (setting [5]) was “A (a Ki ratio greater than or equal to 10 fold between the Ki in the presence of SAM and the Ki in the presence of MTA)”.

On to `Cc1c(OCc2cnco2)ccc2c1CCN(C[C@@H](O)CNC(=O)c1cncc(NC3CCOC3)c1)C2` (stereo partly drawn) [Compound 510], for which the negative logarithm of the IC50 (pIC50) in experiment [1] was 5.30 to 6.30; in experiment [2], no more than 5.30; in experiment [3], 6.30 to 7.30. Also, the “SAM/MTA Ratio” value in experiment [3] (setting [4]) is “A (a Ki ratio greater than or equal to 10 fold between the Ki in the presence of SAM and the Ki in the presence of MTA)”.

Turning to `O=C(NC[C@H](O)CN1CCc2cc(OCc3cnco3)ccc2C1)c1cc(NC2CCC2)ncn1` [Compound 538, (S)-6-(cyclobutylamino)-N-(2-hydroxy-3-(6-(oxazol-5-ylmethoxy)-3,4-dihydroisoquinolin-2(1H)-yl)propyl)pyrimidine-4-carboxamide], the pIC50 is 5.30 to 6.30 in experiment [1], no more than 5.30 in experiment [2] and 6.30 to 7.30 in experiment [3]. Moreover, the “SAM/MTA Ratio” value in experiment [3] (setting [4]) was “A (a Ki ratio greater than or equal to 10 fold between the Ki in the presence of SAM and the Ki in the presence of MTA)”.

On to `CC(=O)N1CC(Nc2cc(C(=O)NCC(O)CN3CCc4nc(OCc5ocnc5C)ccc4C3)nc(N3CCCCC3)n2)C1` (stereo not drawn) [Compound 650], for which the pIC50 in experiment [1] is 6.30 to 7.30; in experiment [2] (read-out: No Co-factor IC50), 5.30 to 6.30; in experiment [3], 6.30 to 7.30. Further, the “SAM/MTA Ratio” value in experiment [3] (setting [5]) is “A (a Ki ratio greater than or equal to 10 fold between the Ki in the presence of SAM and the Ki in the presence of MTA)”.

As to `Cc1c(OCc2cnco2)ccc2c1CCN(C[C@@H](O)CNC(=O)c1cc(NC3CCOCC3)ccn1)C2` [Compound 573, N-[(2S)-2-hydroxy-3-{5-methyl-6-[(1,3-oxazol-5-yl)methoxy]-1,2,3,4-tetrahydroisoquinolin-2-yl}propyl]-4-[(oxan-4-yl)amino]pyridine-2-carboxamide], the pIC50 in experiment [1] was 5.30 to 6.30; in experiment [2], no more than 5.30; in experiment [3], 5.30 to 6.30. The “SAM/MTA Ratio” value in experiment [3] (setting [4]) was “A (a Ki ratio greater than or equal to 10 fold between the Ki in the presence of SAM and the Ki in the presence of MTA)”.

As to `Cc1c(OCc2cnco2)ccc2c1CCN(C[C@@H](O)CNC(=O)c1cccc(NC3CCOCC3)c1)C2` [Compound 548, N-[(2S)-2-hydroxy-3-{5-methyl-6-[(1,3-oxazol-5-yl)methoxy]-1,2,3,4-tetrahydroisoquinolin-2-yl}propyl]-3-[(oxan-4-yl)amino]benzamide], the pIC50 in experiment [1] is 5.30 to 6.30; in experiment [2], no more than 5.30; in experiment [3], 5.30 to 6.30. Further, in experiment [3] (setting [4]), the “SAM/MTA Ratio” value is “A (a Ki ratio greater than or equal to 10 fold between the Ki in the presence of SAM and the Ki in the presence of MTA)”.

In the case of `CC(=O)N1CCC(Nc2cc(C(=O)NC[C@H](O)CN3CCc4c(ccc(OCc5cnnn5C)c4C)C3)ncn2)CC1` [Compound 276, (S)-6-((1-acetylpiperidin-4-yl)amino)-N-(2-hydroxy-3-[5-methyl-6-((1-methyl-1H-1,2,3-triazol-5-yl)methoxy)-3N-dihydroisoquinolin-2(1H)-yl)propyl)pyrimidine-4-carboxamide], the pIC50 in experiment [1] is 5.30 to 6.30; in experiment [2] (read-out: No Co-factor IC50) it was no more than 5.30; in experiment [3], 5.30 to 6.30. Besides, the “SAM/MTA Ratio” value in experiment [3] (setting [5]) was “A (a Ki ratio greater than or equal to 10 fold between the Ki in the presence of SAM and the Ki in the presence of MTA)”.

For `Cc1c(OCc2cnco2)ccc2c1CCN(C[C@@H](O)CNC(=O)c1cc(NC3CN(C(=O)C4CCC4)C3)ncn1)C2` [Compound 585, 6-[(1-cyclobutanecarbonylazetidin-3-yl)amino]-N-[(2S)-2-hydroxy-3-{5-methyl-6-[(1,3-oxazol-5-yl)methoxy]-1,2,3,4-tetrahydroisoquinolin-2-yl}propyl]pyrimidine-4-carboxamide], the negative-log IC50 (pIC50) in experiment [1] was 6.30 to 7.30; in experiment [2], no more than 5.30; in experiment [3] it was 6.30 to 7.30. The “SAM/MTA Ratio” value in experiment [3] (setting [4]) is “A (a Ki ratio greater than or equal to 10 fold between the Ki in the presence of SAM and the Ki in the presence of MTA)”.

In experiment [2], `CC(=O)N1CC(Nc2cc(C(=O)NCC(O)CN3CCc4cc(OCc5ocnc5C)ccc4C3)nc(N3CCCCC3)c2)C1` (stereo not drawn) [Compound 580] had a pIC50 of 5.30 to 6.30.

For `CC(=O)N1CCC(Nc2cc(C(=O)NCC(O)CN3CCc4nc(OCc5ocnc5C)ccc4C3)cc(N3CCCCC3)n2)CC1` (stereo not drawn) [Compound 654], the negative logarithm of the IC50 (pIC50) in experiment [2] (read-out: No Co-factor IC50) was 5.30 to 6.30; in experiment [3], 6.30 to 7.30.

In general, pIC50 refers to the negative decadic logarithm of the IC50, by convention in mol/L.

For the origin of these results see US11986471B2, “Compounds and methods of use” (Tango Therapeutics, Inc., priority 2018, dated 2024).
